# ChEMBL document CHEMBL4806957, “Cdk8/cdk19 selective inhibitors and their use in anti-metastatic and chemopreventive methods for cancer” (2019)
# pIC50, pKd: −log10 of the molar value. Calls of active or inactive are those of the source. No cut-off for these calls is given here.
# Key:
# [1] = Solubility of compound in water at < 50 mM after 30 mins; assay type: physicochemical; conditions: buffer, 0.5 h
# [2] = Solubility of compound in water at 10 mM after 30 mins; assay type: physicochemical; conditions: buffer, 0.5 h, 10000 µM
# [3] = Solubility of compound in water at 50 mM after 30 mins; assay type: physicochemical; conditions: buffer, 0.5 h, 50000 µM
# [4] = system: MDA-MB-468; test: Antitumor activity against human MDA-MB-468 cells xenografted in nude mouse assessed as reduction in tumor growth at 4 mg/kg, ip administered daily for 30 days by caliper method; assay type: functional, organism-based; conditions: time 30.0 day
# [5] = Toxicity in mouse xenografted with human MDA-MB-231 cells assessed as reduction in body weight at 1 mg/kg administered as single dose; assay type: organism-based; design: scale not given: the % may be the effect or the level left; conditions: in vivo
# [6] = system: MDA-MB-231; test: Antitumor activity against human MDA-MB-231 cells xenografted in SCID mouse assessed as reduction in tumor growth at 1 mg/kg, ip administered as single dose; assay type: functional, organism-based
# [7] = system: MDA-MB-468; test: Antitumor activity against human MDA-MB-468 cells xenografted in nude mouse assessed as invasive tumor growth at 4 mg/kg, ip administered daily for 30 days by H and E staining based histological analysis; assay type: functional, organism-based; conditions: time 30.0 day
# [8] = system: MDA-MB-468; test: Antitumor activity against human MDA-MB-468 cells xenografted in nude mouse assessed as non-invasive tumor growth at 40 mg/kg, ip administered daily for 30 days in presence of doxorubicin by H and E staining based histological analysis; assay type: functional, organism-based; conditions: time 30.0 day
# [9] = system: MDA-MB-157; test: Growth inhibition of human MDA-MB-157 cells after 5 days by MTT assay; assay type: functional, cell-based; conditions: dose 0.078-10 µM, time 5.0 day
# [10] = system: MDA-MB-468; test: Growth inhibition of human MDA-MB-468 cells after 5 days by MTT assay; assay type: functional, cell-based; conditions: dose 0.078-10 µM, time 5.0 day
# [11] = system: MDA-MB-231; test: Antitumor activity against human MDA-MB-231 cells xenografted in SCID mouse assessed as reduction in tumor growth at 40 mg/kg, ip administered as 5 daily doses; assay type: functional, organism-based
# [12] = system: MDA-MB-468; test: Antitumor activity against human MDA-MB-468 cells xenografted in nude mouse assessed as reduction in tumor growth at 40 mg/kg, ip administered daily for 30 days by caliper method; assay type: functional, organism-based; conditions: time 30.0 day
# [13] = Toxicity in BALB/c mouse assessed as decrease in brain weight at 40 mg/kg, ip administered with 5 daily doses and 2 days off and another 5 daily dosing schedule for 12 days; assay type: organism-based; conditions: in vivo, 288 h, time 12 day
# [14] = Toxicity in BALB/c mouse assessed as decrease in lung weight at 40 mg/kg, ip administered with 5 daily doses and 2 days off and another 5 daily dosing schedule for 12 days; assay type: organism-based; conditions: in vivo, 288 h, time 12 day
# [15] = biological target: Cyclin-dependent kinase 9 (Homo sapiens, UniProt P50750); test: Inhibition of CDK9 (unknown origin)
# Cyclin-dependent kinase 9, sequence (P50750 whole entry): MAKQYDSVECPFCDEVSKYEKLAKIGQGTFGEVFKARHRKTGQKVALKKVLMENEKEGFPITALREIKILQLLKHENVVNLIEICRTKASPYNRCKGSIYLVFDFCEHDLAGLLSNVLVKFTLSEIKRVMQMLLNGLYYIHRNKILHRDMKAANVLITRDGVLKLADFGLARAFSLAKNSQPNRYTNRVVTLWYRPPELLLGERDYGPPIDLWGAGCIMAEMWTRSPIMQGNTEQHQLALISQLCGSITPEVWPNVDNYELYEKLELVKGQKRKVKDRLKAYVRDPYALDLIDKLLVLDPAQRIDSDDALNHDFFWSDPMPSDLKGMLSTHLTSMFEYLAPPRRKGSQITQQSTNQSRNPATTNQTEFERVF
# [16] = system: A549; test: Antitumor activity against human A549 cells xenografted in CB-17 SCID mouse assessed as reduction in tumor growth pretreated with compound at 40 mg/kg, ip administered 5 daily dose followed by tumor injection and monitored twice a week starting from 7 days after post tumor injection to 24 days by caliper method; assay type: functional, organism-based; conditions: time 24.0 day
# [17] = Toxicity in BALB/c mouse assessed as decrease in spleen weight at 40 mg/kg, ip administered with 5 daily doses and 2 days off and another 5 daily dosing schedule for 12 days; assay type: organism-based; design: scale not given: the % may be the effect or the level left; conditions: in vivo, 288 h, time 12 day
# [18] = Toxicity in BALB/c mouse assessed as decrease in liver weight at 40 mg/kg, ip administered with 5 daily doses and 2 days off and another 5 daily dosing schedule for 12 days; assay type: organism-based; conditions: in vivo, 288 h, time 12 day
# [19] = biological target: T1, Cyclin-dependent kinase 8 (Homo sapiens, UniProt P49336); test: Inhibition of human CDK8 (M1 to T360 residues) expressed in bacterial expression system at 2000 nM by KINOMEscan assay relative to control
# T1 sequence (P49336 whole entry, the tested form may be a part): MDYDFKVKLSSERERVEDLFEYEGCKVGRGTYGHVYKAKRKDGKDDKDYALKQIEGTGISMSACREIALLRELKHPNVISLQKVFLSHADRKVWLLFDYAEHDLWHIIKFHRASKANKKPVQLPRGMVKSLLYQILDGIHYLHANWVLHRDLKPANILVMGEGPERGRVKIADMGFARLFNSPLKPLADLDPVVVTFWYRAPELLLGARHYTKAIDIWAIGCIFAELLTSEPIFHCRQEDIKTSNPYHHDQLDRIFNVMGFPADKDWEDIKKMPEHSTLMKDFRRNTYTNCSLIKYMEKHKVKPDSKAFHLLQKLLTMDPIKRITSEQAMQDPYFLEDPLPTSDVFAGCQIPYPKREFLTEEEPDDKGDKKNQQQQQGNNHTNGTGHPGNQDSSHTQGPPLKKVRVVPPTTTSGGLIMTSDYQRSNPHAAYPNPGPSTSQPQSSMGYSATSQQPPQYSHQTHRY
# [20] = biological target: Cyclin-dependent kinase 19 (Homo sapiens) (UniProt Q9BWU1); test: Inhibition of human […] (M1 to N360 residues) expressed in bacterial expression system at 2000 nM by KINOMEscan assay relative to control
# Cyclin-dependent kinase 19 (Homo sapiens), sequence (Q9BWU1 whole entry, the tested form may be a part): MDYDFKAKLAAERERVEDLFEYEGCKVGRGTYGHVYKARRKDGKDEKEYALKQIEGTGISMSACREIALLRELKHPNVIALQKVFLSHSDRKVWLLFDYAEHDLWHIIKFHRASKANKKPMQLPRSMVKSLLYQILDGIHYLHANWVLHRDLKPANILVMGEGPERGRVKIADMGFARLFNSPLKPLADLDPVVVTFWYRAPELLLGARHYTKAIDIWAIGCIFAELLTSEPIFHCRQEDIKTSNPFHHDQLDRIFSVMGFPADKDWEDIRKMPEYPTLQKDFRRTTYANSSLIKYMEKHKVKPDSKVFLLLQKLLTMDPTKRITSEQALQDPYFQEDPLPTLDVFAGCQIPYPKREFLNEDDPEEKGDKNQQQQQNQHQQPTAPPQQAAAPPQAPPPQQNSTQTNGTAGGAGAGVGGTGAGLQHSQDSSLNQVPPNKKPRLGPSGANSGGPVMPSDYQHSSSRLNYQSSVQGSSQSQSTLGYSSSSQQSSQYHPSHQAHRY
# [21] = system: 4T1; test: Growth inhibition of mouse 4T1 cells at 0.078 to 10 uM after 5 days by MTT assay; assay type: functional, cell-based; conditions: dose 0.078-10 µM, time 5.0 day
# [22] = biological target: T1, Cyclin-dependent kinase 8; test: Inhibition of CDK8 (unknown origin)
# [23] = system: MDA-MB-468; test: Antitumor activity against human MDA-MB-468 cells xenografted in nude mouse assessed as slower appearance of palpable tumor pretreated with compound at 25 mg/kg, ip administered 5 daily dose followed by tumor injection and monitored every day; assay type: functional, organism-based
# [24] = Plasma concentration in mouse at 100 mg/kg administered via gavage; assay type: ADME, organism-based; conditions: in vivo, po
# [25] = system: MDA-MB-468; test: Antitumor activity against human MDA-MB-468 cells xenografted in nude mouse assessed as reduction in tumor growth at 40 mg/kg, ip administered daily for 30 days in presence of doxorubicin by caliper method; assay type: functional, organism-based; conditions: time 30.0 day
# [26] = system: MDA-MB-468; test: Antitumor activity against human MDA-MB-468 cells xenografted in nude mouse assessed as non-invasive tumor growth at 40 mg/kg, ip administered daily for 30 days by H and E staining based histological analysis; assay type: functional, organism-based; conditions: time 30.0 day
# [27] = biological target: T2, Catenin beta-1 (Homo sapiens) (UniProt P35222); test: Inhibition of beta-catenin activity in human HCT116 cells assessed as reduction in TOPFlash promoter mediated luciferase expression; assay type: cell-based; conditions: HCT-116, dose […]
# T2 sequence (whole entry): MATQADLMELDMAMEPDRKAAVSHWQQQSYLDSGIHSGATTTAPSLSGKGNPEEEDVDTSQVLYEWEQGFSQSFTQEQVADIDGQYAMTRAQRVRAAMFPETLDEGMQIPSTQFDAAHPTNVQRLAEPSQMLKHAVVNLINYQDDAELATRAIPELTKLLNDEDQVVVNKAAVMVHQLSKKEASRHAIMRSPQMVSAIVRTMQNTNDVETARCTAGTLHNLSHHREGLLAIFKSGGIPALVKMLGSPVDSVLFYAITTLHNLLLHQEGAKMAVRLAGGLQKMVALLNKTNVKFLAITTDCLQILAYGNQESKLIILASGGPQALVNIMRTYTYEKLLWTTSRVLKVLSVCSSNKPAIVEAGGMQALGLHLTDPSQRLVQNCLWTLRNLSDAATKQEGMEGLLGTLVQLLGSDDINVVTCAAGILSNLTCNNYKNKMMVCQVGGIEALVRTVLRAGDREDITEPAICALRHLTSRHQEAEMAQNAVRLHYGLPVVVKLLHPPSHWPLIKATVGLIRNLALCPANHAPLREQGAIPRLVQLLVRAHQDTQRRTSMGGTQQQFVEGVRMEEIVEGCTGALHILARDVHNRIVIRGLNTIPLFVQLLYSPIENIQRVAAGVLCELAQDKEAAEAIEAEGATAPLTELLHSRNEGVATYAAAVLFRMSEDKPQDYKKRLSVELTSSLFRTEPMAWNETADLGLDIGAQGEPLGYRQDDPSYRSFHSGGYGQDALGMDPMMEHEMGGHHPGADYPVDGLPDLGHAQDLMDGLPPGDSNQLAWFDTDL
# [28] = Toxicity in BALB/c mouse assessed as decrease in lymphocytes count at 40 mg/kg, ip administered with 5 daily doses and 2 days off and another 5 daily dosing schedule for 12 days; assay type: organism-based; design: scale not given: the % may be the effect or the level left; conditions: in vivo, 288 h, time 12 day
# [29] = Toxicity in mouse xenografted with human MDA-MB-231 cells assessed as reduction in body weight at 40 mg/kg administered as 5 daily doses; assay type: organism-based; conditions: in vivo
# [30] = AUC in rat at 40 mg/kg, ip; assay type: ADME, organism-based; design: dose 40 mg/kg; conditions: in vivo
# [31] = Toxicity in BALB/c mouse assessed as body weight gain at 40 mg/kg, ip administered with 5 daily doses and 2 days off and another 5 daily dosing schedule for 12 days; assay type: organism-based; conditions: in vivo, 288 h, time 12 day
# [32] = biological target: T1, Cyclin-dependent kinase 8; test: Inhibition of CDK8 (unknown origin) by Pro-Qinase assay
# [33] = system: MDA-MB-468; test: Antitumor activity against human MDA-MB-468 cells xenografted in mouse assessed as reduction in tumor growth pretreated with compound at 40 mg/kg, ip administered for 3 days followed by tumor injection by caliper method; assay type: functional, organism-based; conditions: time 3.0 day
# [34] = system: MDA-MB-468; test: Antitumor activity against human MDA-MB-468 cells xenografted in mouse assessed as reduction in tumor growth at 40 mg/kg, ip by caliper method; assay type: functional, organism-based
# [35] = system: MDA-MB-231; test: Additive antitumor activity against human MDA-MB-231 cells xenografted in SCID mouse assessed as reduction in tumor growth at 40 mg/kg, ip administered as 5 daily doses in presence of doxorubicin; assay type: functional, organism-based
# [36] = Toxicity in BALB/c mouse assessed as decrease in kidney weight at 40 mg/kg, ip administered with 5 daily doses and 2 days off and another 5 daily dosing schedule for 12 days; assay type: organism-based; conditions: in vivo, 288 h, time 12 day
# [37] = Toxicity in BALB/c mouse assessed as decrease in thymus weight at 40 mg/kg, ip administered with 5 daily doses and 2 days off and another 5 daily dosing schedule for 12 days; assay type: organism-based; conditions: in vivo, 288 h, time 12 day
# [38] = biological target: T1, Cyclin-dependent kinase 8; test: Inhibition of CDK8 in human HT1080 cells assessed as inhibition of IPTG-inducible p21 induced CMV-GFP expression by Hoechst 33342 staining-based fluorescence assay; assay type: cell-based; conditions: HT-1080
compound,measurement,setting,value
CN1CCN(C(=O)c2cc(CNc3ncnc4ccc(C#N)cc34)ccc2Cl)CC1,solubility,[1],Soluble
N#Cc1ccc2ncnc(NCCc3ccc(C(=O)N4CCC(N)C4)cc3)c2c1 (stereo not given),solubility,[2],Soluble
CN(C)CCNC(=O)c1ccc(CCNc2ncnc3ccc(C#N)cc23)cc1,solubility,[2],Soluble
COCCNC(=O)c1ccc(CCNc2ncnc3ccc(C#N)cc23)cc1,solubility,[2],Soluble
N#Cc1ccc2ncnc(NCc3ccc(Cl)c(C(=O)N4CCOCC4)c3)c2c1,solubility,[3],Soluble
CN(C)C(=O)c1ccc(CCNc2ncnc3ccc(C#N)cc23)cc1,solubility,[2],Soluble
N#Cc1ccc2ncnc(NCCc3ccc(C(=O)N4CCOCC4)cc3)c2c1,solubility,[2],Soluble
CN1CCN(C(=O)c2ccc(CCNc3ncnc4ccc(C#N)cc34)cc2)CC1,solubility,[2],Soluble
N#Cc1ccc2ncnc(NCCc3ccc4cc(C(=O)N5CCOCC5)ccc4c3)c2c1,solubility,[1],Soluble
COc1cccc2c1C(=O)c1c(O)c3c(c(O)c1C2=O)C[C@@](O)(C(=O)CO)C[C@@H]3O[C@H]1C[C@H](N)[C@H](O)[C@H](C)O1 [DOXORUBICIN],Activity,[4],Active
same,Activity,[5],15%
same,Activity,[6],Active
same,Activity,[7],Active
CN1CCN(C(=O)c2ccc3cc(CCNc4ncnc5ccc(C#N)cc45)ccc3c2)CC1 [SENEXIN B],Activity,[8],Active
same,growth inhibition (GI),[9],Dose-Dependent Effect
same,growth inhibition (GI),[10],Dose-Dependent Effect
same,Activity,[11],Active
same,Activity,[12],Active
same,Activity,[13],Non-Toxic
same,Activity,[14],Non-Toxic
same,Kd,[15],Not Active
same,Activity,[16],Active
same,Activity,[17],20%
same,Activity,[18],Non-Toxic
same,inhibition,[19],97.8%
same,inhibition,[20],98.6%
same,growth inhibition (GI),[21],inactive
same,pKd,[22],6.85
same,Activity,[23],Active
same,concentration,[24],50 µM
same,Activity,[25],Active
same,Activity,[26],Active
same,inhibition,[27],Dose-Dependent Effect
same,Activity,[28],25%
same,Activity,[29],Non-Toxic
same,AUC,[30],14100 ng·h/mL
same,Activity,[31],Non-Toxic
same,pIC50,[32],7.62
same,Activity,[33],Active
same,Activity,[34],Active
same,Activity,[35],Active
same,solubility,[3],Soluble
same,Activity,[36],Non-Toxic
same,Activity,[37],Non-Toxic
same,inhibition,[38],Active
